Series [1] concerns ERK1/2 phosphorylation in Panc-1 cells. Put plainly: Western ERK1/2 cell-based phosphorylation assay. Set-up: species or system human. The conditions noted are these: at 10 μM, values in brackets < > are activation %, not inhibition. In short, it runs like this:
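Panc-1 cells starved overnight in 0.5% FBS, then exposed 6 h at 37 °C to compound at 10 μM final (0.3% DMSO) or serial dilutions for IC50. Stimulation with 1.5 ng/ml EGF for 15 min; phospho-ERK1/2 (Thr202/Tyr204) read by western blot on equal protein loads.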

Series [2] deals with A-549 NSCLC cell line (KRAS G12S). Briefly: Cell proliferation assay (CellTiter 96 Aqueous One). It is filed as cell-based. The conditions noted are these: Homo sapiens; A549, 2-4 days, 10% FBS. In short, it runs like this:
(§1)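 Percent inhibition of proliferation is derived from MTS absorbance data. Cells seeded at 2000–5000 per well were grown overnight before treatment. Compounds, at 10 μM final or in dilution series, stayed on cells for 2–4 days in medium containing 10% FBS and 0.3% DMSO.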

The subject of series [3] is MIA-PaCa-2 pancreatic cancer cell line (KRAS G12C). The series is described as above. It is filed as cell-based. The conditions noted are these: Homo sapiens; for inhibition at 10 µM: MIA PaCa-2, read-out: % inh cell proliferation (10 μM) in MIA PaCa-2. In short, it runs like this: as §1
Series [4] concerns PANC-1 pancreatic cancer cell line (KRAS G12D). The series is described as above. It is filed as cell-based. The conditions noted are these: Homo sapiens; PANC-1, 2-4 days, 10% FBS. In short, it runs like this: as §1
Series [5] deals with SW-620 colorectal cancer cell line (KRAS G12V). The series is described as above. Format: cell-based. The conditions noted are these: Homo sapiens; SW-620, 2-4 days, 10% FBS. In short, it runs like this: as §1
The nature of the next series: Kinetic solubility assay. It is filed as physicochemical. The conditions noted are these: phosphate-buffered saline pH 7.4 with 2% DMSO, aqueous buffer, kinetic from dmso stock; pH 7.4 PBS + 2% DMSO, 25° C., two hours; effective range approximately 2-400 μM. How it is done:
Equipment: Water purification system Millipore Milli-Q Gradient A10 (Millipore, France); Thermomixer R Block, 1.5 ml (Eppendorf, Germany; Cat #5355); Matrix Multichannel Electronic Pipette 2-125 μL, 5-250 μL, 15-1250 μL (Thermo Scientific, USA; Cat ##2011, 2012, 2004); SpectraMax Plus Microplate Reader (Molecular Devices, USA; Product #02196); Multi-Well Plate Vacuum Manifold (Pall Corporation, USA; Product #5014); and Vacuum pump (Millipore, USA; Model #XX5500000)
Analytical System: The measurements were performed using SpectraMax Plus reader in UV-Vis mode. Acquisition and analysis of the data were performed using SoftMax Pro v.5.4 (Molecular Devices) and Excel 2010 data analysis software.
Methods: Briefly, using a 20 mM stock solution of the compound in 100% DMSO dilutions were prepared to a theoretical concentration of 400 μM in duplicates in phosphate-buffered saline pH 7.4 (138 mM NaCl, 2.7 mM KCl, 10 mM K-phosphate) with 2% final DMSO. The experimental compound dilutions in PBS were further allowed to equilibrate at 25° C. on a thermostatic shaker for two hours and then filtered through HTS filter plates using a vacuum manifold. The filtrates of test compounds were diluted 2-fold with acetonitrile with 2% DMSO before measuring.
In parallel, compound dilutions in acetonitrile/PBS (1:1) were prepared to theoretical concentrations of 0 μM (blank), 10 μM, 25 μM, 50 μM, 100 μM, and 200 μM with 2% final DMSO to generate calibration curves. Ondansetron was used as reference compound to control proper assay performance. 200 μL of each sample was transferred to 96-well plate and measured in 200-550 nm range with 5 nm step.
The concentrations of compounds in PBS filtrate are calculated using a dedicated Microsoft Excel calculation script. Proper absorbance wavelengths for calculations are selected for each compound manually based on absorbance maximums (absolute absorbance unit values for the minimum and maximum concentration points within 0-3 OD range). Each of the final datasets is additionally visually evaluated by the operator and goodness of fit (R2) is calculated for each calibration curve. […] This method is not suitable for liquid (at 25° C.) substances (were not present among the tested compounds). Table 3A provides the kinetic solubility for some of the exemplified compounds.

Setting [6] is: MIA PaCa-2, MIA-PaCa-2, 2-4 days, 10% FBS.

One may read the IC50 as the concentration that gives 50% inhibition. Higher therefore signals a need for much substance. In general, kinetic solubility refers to the concentration staying in solution when a stock, usually in DMSO, is diluted into the medium.

Structures are written as SMILES.

As to `COCC1CCN(c2nc(-c3nccn3C)nc3sc(-c4ccn(C(C)C)n4)c(C)c23)C1` (racemic) [Compound 38, rac-6-(1-Isopropyl-1H-pyrazol-3-yl)-4-(3-(methoxymethyl)pyrrolidin-1-yl)-5-methyl-2-(1-methyl-1H-imidazol-2-yl)thieno[2,3-d]pyrimidine], the “% inh of ERK1/2 phosphorylation in PANC-1” value (from here on “% inh”) in series [1] was “D (76-100% inhibition)”. Further, the IC50 in series [2] was in the range of 0.75 to 1 µM; in series [3] (MIA PaCa-2, MIA PaCa-2) it was 1 to 4.99 µM; in series [3] (setting [6]) it was 0.75 to 1 µM; in series [4], 0.75 to 1 µM; in series [5], 0.75 to 1 µM. Further, the inhibition at 10 µM in series [3] lay in the range of 76 to 100%. Besides, the kinetic solubility at 2 h in “Kinetic solubility assay” was > 400 µM.
Regarding `CO[C@H]1CC(Nc2nc(-c3nccn3C)nc3sc(-c4ccn(C(C)C)n4)c(C)c23)C[C@@H]1OC` (racemic) [Compound 44, rac-N-((3S,4S)-3,4-Dimethoxycyclopentyl)-6-(1-isopropyl-1H-pyrazol-3-yl)-5-methyl-2-(1-methyl-1H-imidazol-2-yl)thieno[2,3-d]pyrimidin-4-amine], in series [1], the “% inh” value is listed as “D (76-100% inhibition)”. In series [3] (MIA PaCa-2, MIA PaCa-2), the IC50 lay in the range of 1 to 4.99 µM. Besides, the inhibition at 10 µM in series [3] lay in the range of 76 to 100%. Besides, the kinetic solubility at 2 h in “Kinetic solubility assay” stood at 76 µM.
With `COC[C@@H]1CC[C@@H]1CNc1nc(-c2nccn2C)nc2sc(-c3ccn(C(C)C)n3)c(C)c12` (racemic) [Compound 63, rac-6-(1-Isopropyl-1H-pyrazol-3-y)-N-(((1S,2R)-2-(methoxymethyl)cyclobutyl)methyl)-5-methyl-2-(1-methyl-1H-imidazol-2-yl)thieno[2,3-d]pyrimidin-4-amine], the “% inh” value in series [1] was “D (76-100% inhibition)”. The concentration for half-maximal inhibition (IC50) is 0.4 to 0.75 µM in series [2]; < 1 µM in series [3] (MIA PaCa-2, MIA PaCa-2); < 0.4 µM in series [3] (setting [6]); 0.4 to 0.75 µM in series [4]; < 0.4 µM in series [5]. In addition, the inhibition at 10 µM in series [3] lay in the range of 76 to 100%. Besides, in the series “Kinetic solubility assay”, the kinetic solubility at 2 h stood at 18 µM.
In the case of `CO[C@H]1CC[C@@H](Nc2nc(-c3ccccn3)nc3sc(-c4ccn(C(C)C)n4)c(C)c23)C1` (racemic) [Compound 69, Rac-6-(1-isopropyl-1H-pyrazol-3-yl)-N-((1R,3S)-3-methoxycyclopentyl)-5-methyl-2-(pyridine-2-yl)thieno[2,3-d]pyrimidin-4-amine], the “% inh” value in series [1] is listed as “D (76-100% inhibition)”. In series [3] (MIA PaCa-2, MIA PaCa-2), this molecule showed an IC50 of 5 to 10 µM. For the same molecule, in series [3], the inhibition at 10 µM lay in the range of 76 to 100%. Moreover, the kinetic solubility at 2 h in “Kinetic solubility assay” was found to be 79 µM.
On to `COCCCNc1nc(-c2nccn2C)nc2sc(-c3ccn(C(C)C)n3)c(C)c12` [Compound 36, 6-(1-Isopropyl-1H-pyrazol-3-yl)-N-(3-methoxypropyl)-5-methyl-2-(1-methyl-1H-imidazol-2-yl)thieno[2,3-d]pyrimidin-4-amine], for which, in series [1], the “% inh” value is “C (51-75% inhibition)”. In addition, the IC50 in series [3] (MIA PaCa-2, MIA PaCa-2) was < 1 µM. Also, the inhibition at 10 µM in series [3] lay within 76 to 100%. The kinetic solubility at 2 h in “Kinetic solubility assay” turned out to be 268 µM.
On the same counts, the results for `COc1cc(Nc2nc(-c3nccn3C)nc3sc(-c4ccn(C(C)C)n4)c(C)c23)ncn1` [Compound 66, 6-(1-Isopropyl-1H-pyrazol-3-yl)-N-(6-methoxypyrimidin-4-yl)-5-methyl-2-(1-methyl-1H-imidazol-2-yl)thieno[2,3-d]pyrimidin-4-amine] are 0 (0% inhibition), < 1 µM, 76 to 100% and 4 µM.
Consider `CO[C@@H]1CC[C@H](Nc2nc(-c3nccn3C)nc3sc(-c4ccn(C(C)C)n4)c(-c4ccccc4)c23)C1` [Example 4, 6-(1-isopropyl-1H-pyrazol-3-yl)-N-((1S,3R)-3-methoxycyclopentyl)-2-(1-methyl-1H-imidazol-2-yl)-5-phenylthieno[2,3-d]pyrimidin-4-amine], for which the “% inh” value in series [1] is recorded as “D (76-100% inhibition)”. Further, the IC50 was 0.4 to 0.75 µM in series [2]; < 1 µM in series [3] (MIA PaCa-2, MIA PaCa-2); < 0.4 µM in series [3] (setting [6]); < 0.4 µM in series [4]; 0.4 to 0.75 µM in series [5]. Further, the inhibition at 10 µM in series [3] was 76 to 100%. The solubility (kinetic) at 2 h in “Kinetic solubility assay” turned out to be 5 µM.

Values taken from patent US20230227466A1, “SUBSTITUTED THIENOPYRIMIDINES THAT INTERACT WITH THE RAS SUPERFAMILY FOR THE TREATMENT OF CANCERS, INFLAMMATORY DISEASES, RASOPATHIES, AND FIBROTIC DISEASE” (SHY Therapeutics, LLC, priority 2020, published 2023).
